The values that follow come from patent publication US10323036B2 (Nimbus Lakshmi, Inc., priority 2016, dated 2019).

The structures appear in SMILES notation. Like-named read-outs stand apart in the source and are kept apart here.

Assay [1] addresses human TYK2 (JH2domain-pseudokinase) (Homo sapiens (Human), UniProt P29597). Briefly: TYK2 JH2 Domain Binding Assay (KINOMEscan).
Assay [2] concerns the target TYK2 JH1 kinase (Homo sapiens (Human), UniProt P29597). Briefly: Tyk2 Radioactive Kinase Assay. The assay is classed as biochemical. The conditions noted are these: ATP at 10 μM. Here is the method: (§1) Peptide substrate, [KKSRGDYMTMQIG (SEQ ID NO: 2)], (20 μM) is prepared in reaction buffer (20 mM Hepes pH 7.5, 10 mM MgCl2, 1 mM EGTA, 0.02% Brij35, 0.02 mg/mL BSA, […], 2 mM DTT, 1% DMSO. TYK2 (Invitrogen) kinase is added, followed by compounds in DMSO. 33PATP is added to initiate the reaction in ATP at 10 μM. Kinase reaction is incubated for 120 min at room temp and reactions are spotted onto P81 ion exchange paper (Whatman #3698-915), and then washed extensively in 0.75% phosphoric acid, prior to reading the radioactivity counts. For JAK2 (Invitrogen) kinase assay the peptide substrate poly[Glu:Tyr] (4:1), 0.2 mg/ml is used, in the reaction carried out the same as for TYK2.

The target of assay [3] is JAK2 JH1 kinase (Homo sapiens (Human), UniProt O60674). Briefly: JAK2 Radioactive Kinase Assay. Particulars: ATP at 10 μM. It is filed as biochemical. On the procedure: as §1
Chain of JAK2 JH1 kinase (O60674 808-1132): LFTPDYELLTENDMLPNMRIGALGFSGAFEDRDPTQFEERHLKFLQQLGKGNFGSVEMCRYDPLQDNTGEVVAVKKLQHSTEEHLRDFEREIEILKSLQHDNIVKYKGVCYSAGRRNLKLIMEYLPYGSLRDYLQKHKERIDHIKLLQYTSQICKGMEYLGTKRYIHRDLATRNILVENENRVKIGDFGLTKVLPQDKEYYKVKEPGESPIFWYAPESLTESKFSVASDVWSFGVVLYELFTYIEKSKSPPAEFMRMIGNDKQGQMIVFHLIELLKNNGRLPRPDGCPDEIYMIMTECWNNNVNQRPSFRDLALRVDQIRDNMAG
Setting [4] is: Table 4, JH2 binding assay, read-out: JH2 Kd.
Where [5] appears, read: Table 5, Tyk2 JH2 Domain Binding Assay, read-out: JH2 Kd.
Where [6] appears, read: Tyk2 JH2 Domain Binding Assay, read-out: Kd.

Chain of human TYK2 (JH2domain-pseudokinase) (P29597 556-888): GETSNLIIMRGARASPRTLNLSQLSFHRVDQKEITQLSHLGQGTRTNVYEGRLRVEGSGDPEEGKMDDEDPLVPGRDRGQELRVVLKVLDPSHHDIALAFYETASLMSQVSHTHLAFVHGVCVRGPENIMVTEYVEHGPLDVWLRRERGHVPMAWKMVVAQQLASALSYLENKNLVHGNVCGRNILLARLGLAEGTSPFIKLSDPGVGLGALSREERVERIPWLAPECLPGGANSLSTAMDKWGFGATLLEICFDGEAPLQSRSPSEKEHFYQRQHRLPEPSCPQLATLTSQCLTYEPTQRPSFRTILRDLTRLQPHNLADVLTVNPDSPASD
Chain of TYK2 JH1 kinase (P29597 833-1187): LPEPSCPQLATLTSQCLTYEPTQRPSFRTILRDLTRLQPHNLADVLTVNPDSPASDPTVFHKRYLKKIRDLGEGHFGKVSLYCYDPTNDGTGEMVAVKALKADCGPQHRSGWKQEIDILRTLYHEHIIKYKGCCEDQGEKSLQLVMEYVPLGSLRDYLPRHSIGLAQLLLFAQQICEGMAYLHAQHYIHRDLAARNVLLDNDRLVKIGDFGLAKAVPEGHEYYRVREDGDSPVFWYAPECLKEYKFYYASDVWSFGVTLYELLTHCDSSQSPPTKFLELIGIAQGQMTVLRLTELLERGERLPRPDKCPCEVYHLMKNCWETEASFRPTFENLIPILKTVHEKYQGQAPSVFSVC

In general, Kd refers to the equilibrium constant for the complex coming apart. With `COc1c(Nc2cc(NC(=O)C3CC3)nc3[nH]n(C)c(=O)c23)cccc1-c1nnn(C)n1` [Compound I-1], the Kd in assay [1] (setting [4]) is less than 0.0001 µM. For the same compound, the “inhibitory activity against TYK2 JH1 kinase function” value in assay [2] is “no detectable inhibitory activity”.

For the compound `COCc1ccnc(Nc2cc(Nc3cccc(-c4nnn(C)n4)c3OC)c3c(=O)n(C)[nH]c3n2)c1` [Compound I-2, 4-((2-methoxy-3-(2-methyl-2H-tetrazol-5-yl)phenyl)amino)-6-((4-(methoxymethyl)pyridin-2-yl)amino)-2-methyl-1,2-dihydro-3H-pyrazolo[3,4-b]pyridin-3-one], in assay [1] (setting [4]), the Kd was 0.0001 to 0.0005 µM. In addition, the “inhibitory activity against TYK2 JH1 kinase function” value in assay [2] was “no detectable inhibitory activity”.

As to `COc1c(Nc2cc(N)nc3[nH]n(C)c(=O)c23)cccc1C(=O)O` [Compound I-241, 3-((6-amino-2-methyl-3-oxo-2,3-dihydro-1H-pyrazolo[3,4-b]pyridin-4-yl)amino)-2-methoxybenzoic acid], in assay [1] (setting [4]), the Kd is greater than 0.01 µM.

For `COc1c(Nc2cc(NC(=O)C3CC3)ncc2-c2ncc(F)s2)cccc1-c1nnn(C)n1` [VIII-2, N-(5-(5-fluorothiazol-2-yl)-4-((2-methoxy-3-(2-methyl-2H-tetrazol-5-yl)phenyl)amino)pyridin-2-yl)cyclopropanecarboxamide], the Kd in assay [1] (setting [5]) lay within 0.01 to 0.1 µM. Also, the “inhibitory activity against JAK2 JH1 kinase function” value in assay [3] is listed as “no detectable inhibitory activity”. Also, the “inhibitory activity against TYK2 JH1 kinase function” value in assay [2] was “no detectable inhibitory activity”.

In the case of `COc1c(Nc2cc(NC(=O)C3CC3)ncc2-c2nnc(C(F)(F)F)o2)cccc1-c1ncn(C)n1` [VIII-3, N-(4-((2-methoxy-3-(1-methyl-1H-1,2,4-triazol-3-yl)phenyl)amino)-5-(5-(trifluoromethyl)-1,3,4-oxadiazol-2-yl)pyridin-2-yl)cyclopropanecarboxamide], the Kd in assay [1] (setting [5]) is greater than 0.1 µM. The “inhibitory activity against JAK2 JH1 kinase function” value in assay [3] is listed as “no detectable inhibitory activity”. The “inhibitory activity against TYK2 JH1 kinase function” value in assay [2] was “no detectable inhibitory activity”.

Turning to `COC(=O)c1nnc(-c2cnc(NC(=O)C3CC3)cc2Nc2cccc(-c3ncn(C)n3)c2OC)o1` [VIII-4, methyl 5-(6-(cyclopropanecarboxamido)-4-((2-methoxy-3-(1-methyl-1H-1,2,4-triazol-3-yl)phenyl)amino)pyridin-3-yl)-1,3,4-oxadiazole-2-carboxylate], the dissociation constant (Kd) in assay [1] (setting [5]) was 0.001 to 0.01 µM. The “inhibitory activity against JAK2 JH1 kinase function” value in assay [3] was “no detectable inhibitory activity”. Moreover, the “inhibitory activity against TYK2 JH1 kinase function” value in assay [2] is “no detectable inhibitory activity”.

Regarding `COc1c(Nc2cc(NC(=O)C3CC3)ncc2-c2nnc(CO)o2)cccc1-c1ncn(C)n1` [VIII-5, N-(5-(5-(hydroxymethyl)-1,3,4-oxadiazol-2-yl)-4-((2-methoxy-3-(1-methyl-1H-1,2,4-triazol-3-yl)phenyl)amino)pyridin-2-yl)cyclopropanecarboxamide], the Kd in assay [1] (setting [5]) lay within 0.001 to 0.01 µM.

Take `COc1c(Nc2cc(NC(=O)C3CC3)ncc2-c2ncc(CO)s2)cccc1-c1ncn(C)n1` [VIII-6, N-(5-(5-(hydroxymethyl)thiazol-2-yl)-4-((2-methoxy-3-(1-methyl-1H-1,2,4-triazol-3-yl)phenyl)amino)pyridin-2-yl)cyclopropanecarboxamide]: the Kd in assay [1] (setting [5]) fell in the range of 0.01 to 0.1 µM.

As for `COc1c(Nc2cc(NC(=O)C3CC3)ncc2-c2nnc(C)s2)cccc1-c1ncn(C)n1` [VIII-7, N-(4-((2-methoxy-3-(1-methyl-1H-1,2,4-triazol-3-yl)phenyl)amino)-5-(5-methyl-1,3,4-thiadiazol-2-yl)pyridin-2-yl)cyclopropanecarboxamide], the Kd in assay [1] (setting [5]) lay within 0.001 to 0.01 µM.

Consider `COc1c(Nc2cc(NC(=O)C3CC3)ncc2-c2ccon2)cccc1-c1nnn(C)n1` [VIII-8, N-(5-(isoxazol-3-yl)-4-((2-methoxy-3-(2-methyl-2H-tetrazol-5-yl)phenyl)amino)pyridin-2-yl)cyclopropanecarboxamide], for which the Kd in assay [1] (setting [5]) is greater than 0.1 µM.

With `COc1c(Nc2cc(NC(=O)C3CC3)ncc2-c2noc(CO)n2)cccc1-c1ncn(C)n1` [VIII-9, N-(5-(5-(hydroxymethyl)-1,2,4-oxadiazol-3-yl)-4-((2-methoxy-3-(1-methyl-1H-1,2,4-triazol-3-yl)phenyl)amino)pyridin-2-yl)cyclopropanecarboxamide], the Kd in assay [1] (setting [5]) is greater than 0.1 µM.

Take `COc1c(Nc2cc(NC(=O)C3CC3)ncc2-n2cc(CO)cn2)cccc1-c1ncn(C)n1` [VIII-10, N-(5-(4-(hydroxymethyl)-1H-pyrazol-1-yl)-4-((2-methoxy-3-(1-methyl-1H-1,2,4-triazol-3-yl)phenyl)amino)pyridin-2-yl)cyclopropanecarboxamide]: in assay [1] (setting [5]), the Kd is greater than 0.1 µM.

With `COc1c(Nc2cc(NC(=O)C3CC3)ncc2-c2cccnn2)cccc1-c1ncn(C)n1` [VIII-11, N-(4-((2-methoxy-3-(1-methyl-1H-1,2,4-triazol-3-yl)phenyl)amino)-5-(pyridazin-3-yl)pyridin-2-yl)cyclopropanecarboxamide], the Kd in assay [1] (setting [5]) lay within 0.01 to 0.1 µM.

As to `COc1c(Nc2cc(Nc3ccc(C)nn3)ncc2-c2nnc(CO)o2)cccc1-c1ncn(C)n1` [VIII-12, (5-(4-((2-methoxy-3-(1-methyl-1H-1,2,4-triazol-3-yl)phenyl)amino)-6-((6-methylpyridazin-3-yl)amino)pyridin-3-yl)-1,3,4-oxadiazol-2-yl)methanol], the Kd in assay [1] (setting [5]) fell in the range of 0.0001 to 0.001 µM.

For the compound `COc1c(Nc2cc(Nc3cccc(C#N)n3)ncc2-c2nnc(CO)o2)cccc1-c1ncn(C)n1` [VIII-13, 6-((5-(5-(hydroxymethyl)-1,3,4-oxadiazol-2-yl)-4-((2-methoxy-3-(1-methyl-1H-1,2,4-triazol-3-yl)phenyl)amino)pyridin-2-yl)amino)picolinonitrile], in assay [1] (setting [5]), the Kd was 0.0001 to 0.001 µM.

On to `COc1c(Nc2cc(Nc3cc(C)nc(C)n3)ncc2-c2nnc(CO)o2)cccc1-c1ncn(C)n1` [VIII-14, (5-(6-((2,6-dimethylpyrimidin-4-yl)amino)-4-((2-methoxy-3-(1-methyl-1H-1,2,4-triazol-3-yl)phenyl)amino)pyridin-3-yl)-1,3,4-oxadiazol-2-yl)methanol], for which the Kd in assay [1] (setting [5]) fell in the range of 0.0001 to 0.001 µM.

For the compound `COc1c(Nc2cc(Nc3cccc(C#N)n3)ncc2-c2ncc(Cl)s2)cccc1-c1nnn(C)n1` [VIII-15, 6-((5-(5-chlorothiazol-2-yl)-4-((2-methoxy-3-(2-methyl-2H-tetrazol-5-yl)phenyl)amino)pyridin-2-yl)amino)picolinonitrile], the Kd in assay [1] (setting [5]) lay in the range of 0.001 to 0.01 µM.

On to `COc1c(Nc2cc(Nc3ccc(C)nn3)ncc2-c2ncc(Cl)s2)cccc1-c1nnn(C)n1` [VIII-16, 5-(5-chlorothiazol-2-yl)-N4-(2-methoxy-3-(2-methyl-2H-tetrazol-5-yl)phenyl)-N2-(6-methylpyridazin-3-yl)pyridine-2,4-diamine], for which the Kd in assay [1] (setting [5]) lay within 0.0001 to 0.001 µM.

In the case of `COCc1ccnc(Nc2cc(Nc3cccc(-c4nnn(C)n4)c3OC)c(-c3ncc(Cl)s3)cn2)c1` [VIII-17, 5-(5-chlorothiazol-2-yl)-N4-(2-methoxy-3-(2-methyl-2H-tetrazol-5-yl)phenyl)-N2-(4-(methoxymethyl)pyridin-2-yl)pyridine-2,4-diamine], the Kd in assay [1] (setting [5]) is 0.0001 to 0.001 µM.

Take `CNc1nn(-c2cccc(-c3ncn(C)n3)c2OC)c2cc(NC(=O)C3CC3)ncc12` [XVI-1, N-(1-(2-methoxy-3-(1-methyl-1H-1,2,4-triazol-3-yl)phenyl)-3-(methylamino)-1H-pyrazolo[4,3-c]pyridin-6-yl)cyclopropanecarboxamide]: the figures for the Kd in assay [1] (setting [5]) and in assay [1] (setting [6]) were 0.01 to 0.1 µM and 7 to 10 µM, respectively.

With `CNc1nc(-c2cccc(-c3nnn(C)n3)c2OC)n2cc(NC(=O)C3CC3)ncc12` [XVI-2], the Kd in assay [1] (setting [5]) was greater than 0.1 µM; in assay [1] (setting [6]), 0.01 to 0.185 µM.

With `CNc1nn(-c2cccc(-c3nnn(C)n3)c2OC)c2cc(NC(=O)C3CC3)ncc12` [XVI-3, N-(1-(2-methoxy-3-(2-methyl-2H-tetrazol-5-yl)phenyl)-3-(methylamino)-1H-pyrazolo[4,3-c]pyridin-6-yl)cyclopropanecarboxamide], the figures for the dissociation constant (Kd) in assay [1] (setting [5]) and in assay [1] (setting [6]) were greater than 0.1 µM and 7 to 10 µM, respectively.

Regarding `CCc1nn(-c2cccc(-c3nnn(C)n3)c2OC)c2cc(NC(=O)C3CC3)ncc12` [XVI-4, N-(3-ethyl-1-(2-methoxy-3-(2-methyl-2H-tetrazol-5-yl)phenyl)-1H-pyrazolo[4,3-c]pyridin-6-yl)cyclopropanecarboxamide], in assay [1] (setting [5]), the Kd was in the range of 0.0001 to 0.001 µM.

With `CCn1nc(-c2cccc(-c3nnn(C)n3)c2OC)c2cc(NC(=O)C3CC3)ncc21` [XVI-5, N-(1-ethyl-3-(2-methoxy-3-(2-methyl-2H-tetrazol-5-yl)phenyl)-1H-pyrazolo[3,4-c]pyridin-5-yl)cyclopropanecarboxamide], the Kd in assay [1] (setting [5]) fell in the range of 0.01 to 0.1 µM.

For `CCn1cc(-c2cccc(-c3nnn(C)n3)c2OC)c2cc(NC(=O)C3CC3)ncc21` [XVI-6, N-(1-ethyl-3-(2-methoxy-3-(2-methyl-2H-tetrazol-5-yl)phenyl)-1H-pyrrolo[2,3-c]pyridin-5-yl)cyclopropanecarboxamide], the dissociation constant (Kd) in assay [1] (setting [5]) was 0.01 to 0.1 µM.
